± gives the expanded uncertainty stated by the source.
Test: xn = mol fraction of the nth substance listed
Settings: Fluid (supercritical or subcritical phases), Buoyancy - hydrostatic balance with magnetic suspension - one sinker

CCCCCCCCCCC [undecane] + O=C=O
Settings	mass density [kg/m3]
333.19 K, 16015 kPa, x2 = 0.8874	741.91 ± 0.39
333.21 K, 19000 kPa, x2 = 0.4641	752.46 ± 0.38
333.23 K, 16000 kPa, x2 = 0.6797	762.53 ± 0.37
343.19 K, 12000 kPa, x2 = 0.2483	720.79 ± 0.37
343.2 K, 14004 kPa, x2 = 0.2483	722.81 ± 0.38
343.2 K, 17005 kPa, x2 = 0.2483	725.76 ± 0.38
343.21 K, 11985 kPa, x2 = 0.6797	729.1 ± 0.37
343.24 K, 10010 kPa, x2 = 0.2483	718.69 ± 0.37
343.25 K, 13002 kPa, x2 = 0.6797	731.82 ± 0.37
343.25 K, 16001 kPa, x2 = 0.4641	738.42 ± 0.37
343.26 K, 14997 kPa, x2 = 0.2483	723.76 ± 0.38
343.26 K, 17011 kPa, x2 = 0.4641	739.9 ± 0.37
343.27 K, 13999 kPa, x2 = 0.6797	736.08 ± 0.4
343.27 K, 14997 kPa, x2 = 0.4641	736.9 ± 0.37
343.27 K, 17005 kPa, x2 = 0.6797	747.33 ± 0.38
343.28 K, 14027 kPa, x2 = 0.8874	673.56 ± 0.49
343.28 K, 14995 kPa, x2 = 0.6797	739.94 ± 0.39
343.28 K, 15997 kPa, x2 = 0.6797	743.79 ± 0.38
343.28 K, 18018 kPa, x2 = 0.6797	750.83 ± 0.37
343.3 K, 11002 kPa, x2 = 0.2483	719.69 ± 0.37
343.3 K, 11003 kPa, x2 = 0.4641	730.57 ± 0.37
343.3 K, 12002 kPa, x2 = 0.4641	732.18 ± 0.37
343.3 K, 16007 kPa, x2 = 0.2483	724.72 ± 0.38
343.3 K, 18033 kPa, x2 = 0.8874	723.56 ± 0.4
343.31 K, 8003 kPa, x2 = 0.4641	725.39 ± 0.37
343.31 K, 13003 kPa, x2 = 0.4641	733.77 ± 0.37
343.32 K, 7999 kPa, x2 = 0.2483	716.46 ± 0.37
343.32 K, 17016 kPa, x2 = 0.8874	713.66 ± 0.41
343.32 K, 19002 kPa, x2 = 0.4641	742.71 ± 0.38
343.34 K, 9998 kPa, x2 = 0.4641	728.83 ± 0.37
343.34 K, 16020 kPa, x2 = 0.8874	702.38 ± 0.43
343.34 K, 19012 kPa, x2 = 0.2483	727.57 ± 0.38
343.35 K, 15016 kPa, x2 = 0.8874	689.29 ± 0.46
343.35 K, 17999 kPa, x2 = 0.4641	741.25 ± 0.37
343.37 K, 19004 kPa, x2 = 0.8874	731.75 ± 0.39
343.37 K, 19021 kPa, x2 = 0.6797	753.8 ± 0.37
343.39 K, 13010 kPa, x2 = 0.2483	721.68 ± 0.37
343.4 K, 18008 kPa, x2 = 0.2483	726.58 ± 0.38
343.41 K, 14002 kPa, x2 = 0.4641	735.22 ± 0.37
353.08 K, 11003 kPa, x2 = 0.2483	711.86 ± 0.37
353.09 K, 11995 kPa, x2 = 0.4641	721.32 ± 0.37
353.12 K, 10003 kPa, x2 = 0.2483	710.71 ± 0.37
353.13 K, 13017 kPa, x2 = 0.2483	714.01 ± 0.37
353.13 K, 17994 kPa, x2 = 0.4641	731.12 ± 0.37
353.14 K, 16002 kPa, x2 = 0.2483	717.14 ± 0.37
353.19 K, 14997 kPa, x2 = 0.4641	726.33 ± 0.37
353.23 K, 14005 kPa, x2 = 0.4641	724.68 ± 0.37
353.31 K, 8017 kPa, x2 = 0.4641	712.03 ± 0.37
353.31 K, 16999 kPa, x2 = 0.2483	718.15 ± 0.37
353.33 K, 9996 kPa, x2 = 0.4641	717.59 ± 0.37
353.33 K, 18011 kPa, x2 = 0.2483	719.15 ± 0.37
353.34 K, 14014 kPa, x2 = 0.2483	715.02 ± 0.37
353.34 K, 16078 kPa, x2 = 0.6797	710.53 ± 0.42
353.35 K, 14995 kPa, x2 = 0.2483	716.05 ± 0.37
353.38 K, 19001 kPa, x2 = 0.4641	732.5 ± 0.37
353.39 K, 13004 kPa, x2 = 0.4641	722.88 ± 0.37
353.4 K, 7998 kPa, x2 = 0.2483	708.29 ± 0.37
353.4 K, 16003 kPa, x2 = 0.4641	727.85 ± 0.37
353.4 K, 19017 kPa, x2 = 0.2483	720.08 ± 0.38
353.41 K, 11004 kPa, x2 = 0.4641	719.34 ± 0.37
353.42 K, 17964 kPa, x2 = 0.6797	722.19 ± 0.39
353.43 K, 12003 kPa, x2 = 0.2483	712.78 ± 0.37
353.43 K, 15953 kPa, x2 = 0.8874	651.24 ± 0.49
353.43 K, 18953 kPa, x2 = 0.8874	692.79 ± 0.42
353.43 K, 19052 kPa, x2 = 0.8874	691.56 ± 0.41
353.44 K, 15006 kPa, x2 = 0.6797	702.5 ± 0.39
353.44 K, 16998 kPa, x2 = 0.4641	729.38 ± 0.37
353.44 K, 17006 kPa, x2 = 0.6797	716.04 ± 0.41
353.44 K, 19016 kPa, x2 = 0.6797	727.96 ± 0.39
353.45 K, 17976 kPa, x2 = 0.8874	681.1 ± 0.43
353.46 K, 16003 kPa, x2 = 0.8874	649.3 ± 0.49
353.46 K, 17018 kPa, x2 = 0.8874	665.72 ± 0.88
353.52 K, 17018 kPa, x2 = 0.8874	668.1 ± 0.88
353.52 K, 18000 kPa, x2 = 0.8874	678.79 ± 0.43

— the NIST ThermoML archive (doi:10.1021/acs.jced.6b00026)
